# Experimental data from ChEMBL document CHEMBL3885861, “Open TG-GATES”.
# Species: Rattus norvegicus
# Assay: Open TG-GATES - Regimen: Single
# Format: toxicity, organism-based, Sprague-Dawley
# Parameters: regimen Single, gender Male, age 6 weeks
# Conditions: in vivo, po, 50 mg/kg, route gavage, dose level High; for ALT / AST / BUN / CRE / Ca / Cl / DBIL / GLC / IP / K / LDH / Na / PL / RALB / TBIL / TC / TG / TP / gamma-GTP / A/G / ALP: tissue Plasma; for APTT / Bas / Eos / Fbg / Hb / Ht / Lym / MCH / MCHC / MCV / Mono / Neu / PT / Plat / RBC / Ret / WBC: tissue Blood; for KIDNEY_L / KIDNEY_R / KIDNEY_TOTAL: tissue Kidney; for LIVER: tissue Liver
smiles,measurement,setting,value
COc1ccc2c(c1)c(CC(=O)O)c(C)n2C(=O)c1ccc(Cl)cc1 [INDOMETHACIN],ALT,3 h,41.2 IU/L
same,AST,3 h,75 IU/L
same,BUN,3 h,11.4 mg/dL
same,CRE,3 h,0.4 mg/dL
same,Ca,3 h,10.4 mg/dL
same,Cl,3 h,102 meq/L
same,DBIL,3 h,0.072 mg/dL
same,GLC,3 h,217.4 mg/dL
same,IP,3 h,10.5 mg/dL
same,K,3 h,3.9 meq/L
same,LDH,3 h,221 IU/L
same,Na,3 h,140.4 meq/L
same,PL,3 h,125.4 mg/dL
same,RALB,3 h,3.3 g/dL
same,TBIL,3 h,0.1 mg/dL
same,TC,3 h,69.6 mg/dL
same,TG,3 h,43.4 mg/dL
same,TP,3 h,5.4 g/dL
same,gamma-GTP,3 h,1 IU/L
same,TERMINAL_BW,6 h,223.2 g
same,APTT,6 h,18.3 s
same,Bas,6 h,0%
same,Eos,6 h,0.4%
same,Fbg,6 h,214.4 mg/dL
same,Hb,6 h,13.7 g/dL
same,Ht,6 h,37.2%
same,Lym,6 h,64%
same,MCH,6 h,22.4 pg
same,MCHC,6 h,36.9%
same,MCV,6 h,60.8 fL
same,Mono,6 h,4.6%
same,Neu,6 h,28.6%
same,PT,6 h,12.3 s
same,Plat,6 h,113.8 x10_4/uL
same,RBC,6 h,612.2 x10_4/ul
same,Ret,6 h,8%
same,WBC,6 h,123.9 x10_2/uL
same,KIDNEY_L,6 h,0.9 g
same,KIDNEY_R,6 h,0.9 g
same,KIDNEY_TOTAL,6 h,1.9 g
same,LIVER,6 h,9.5 g
same,A/G,6 h,1.7
same,ALP,6 h,705.2 IU/L
same,ALT,6 h,35.4 IU/L
same,AST,6 h,73 IU/L
same,BUN,6 h,12.8 mg/dL
same,CRE,6 h,0.4 mg/dL
same,Ca,6 h,10.6 mg/dL
same,Cl,6 h,102.6 meq/L
same,DBIL,6 h,0.08 mg/dL
same,GLC,6 h,194.2 mg/dL
same,IP,6 h,9.4 mg/dL
same,K,6 h,4.1 meq/L
same,LDH,6 h,211.2 IU/L
same,Na,6 h,140.4 meq/L
same,PL,6 h,120.6 mg/dL
same,RALB,6 h,3.3 g/dL
same,TBIL,6 h,0.1 mg/dL
same,TC,6 h,64.8 mg/dL
same,TG,6 h,60.2 mg/dL
same,TP,6 h,5.3 g/dL
same,gamma-GTP,6 h,1 IU/L
same,TERMINAL_BW,9 h,222.5 g
same,APTT,9 h,19 s
same,Bas,9 h,0%
same,Eos,9 h,0.2%
same,Fbg,9 h,215.2 mg/dL
same,Hb,9 h,13.7 g/dL
same,Ht,9 h,36.9%
same,Lym,9 h,68.4%
same,MCH,9 h,22.5 pg
same,MCHC,9 h,37.2%
same,MCV,9 h,60.4 fL
same,Mono,9 h,3.8%
same,Neu,9 h,24.8%
same,PT,9 h,12.2 s
same,Plat,9 h,113.6 x10_4/uL
same,RBC,9 h,610.6 x10_4/ul
same,Ret,9 h,8%
same,WBC,9 h,107.9 x10_2/uL
same,KIDNEY_L,9 h,1 g
same,KIDNEY_R,9 h,1 g
same,KIDNEY_TOTAL,9 h,1.9 g
same,LIVER,9 h,9 g
same,A/G,9 h,1.7
same,ALP,9 h,738.8 IU/L
same,ALT,9 h,30.4 IU/L
same,AST,9 h,68.4 IU/L
same,BUN,9 h,12.8 mg/dL
same,CRE,9 h,0.4 mg/dL
same,Ca,9 h,10.3 mg/dL
same,Cl,9 h,103.8 meq/L
same,DBIL,9 h,0.072 mg/dL
same,GLC,9 h,200.8 mg/dL
same,IP,9 h,9.9 mg/dL
same,K,9 h,4.1 meq/L
same,LDH,9 h,199 IU/L
same,Na,9 h,140.6 meq/L
same,PL,9 h,126.6 mg/dL
same,RALB,9 h,3.3 g/dL
same,TBIL,9 h,0.1 mg/dL
same,TC,9 h,69.2 mg/dL
same,TG,9 h,40.8 mg/dL
same,TP,9 h,5.2 g/dL
same,gamma-GTP,9 h,1.2 IU/L
same,TERMINAL_BW,24 h,230 g
same,APTT,24 h,21.7 s
same,Bas,24 h,0%
same,Eos,24 h,0%
same,Fbg,24 h,260.8 mg/dL
same,Hb,24 h,9.5 g/dL
same,Ht,24 h,27%
same,Lym,24 h,61.4%
same,MCH,24 h,21.3 pg
same,MCHC,24 h,35.1%
same,MCV,24 h,60.6 fL
same,Mono,24 h,2.8%
same,Neu,24 h,33.4%
same,PT,24 h,12.7 s
same,Plat,24 h,67.9 x10_4/uL
same,RBC,24 h,448.8 x10_4/ul
same,Ret,24 h,8.4%
same,WBC,24 h,122.6 x10_2/uL
same,KIDNEY_L,24 h,1 g
same,KIDNEY_R,24 h,1 g
same,KIDNEY_TOTAL,24 h,2 g
same,LIVER,24 h,10.4 g
same,A/G,24 h,1.2
same,ALP,24 h,484.2 IU/L
same,ALT,24 h,25.2 IU/L
same,AST,24 h,48 IU/L
same,BUN,24 h,21.6 mg/dL
same,CRE,24 h,0.4 mg/dL
same,Ca,24 h,9.4 mg/dL
same,Cl,24 h,106.2 meq/L
same,DBIL,24 h,0.056 mg/dL
same,GLC,24 h,167.8 mg/dL
same,IP,24 h,8.6 mg/dL
same,K,24 h,4.2 meq/L
same,LDH,24 h,145.2 IU/L
same,Na,24 h,141.2 meq/L
same,PL,24 h,114 mg/dL
same,RALB,24 h,1.9 g/dL
same,TBIL,24 h,0.096 mg/dL
same,TC,24 h,60.4 mg/dL
same,TG,24 h,122.8 mg/dL
same,TP,24 h,3.5 g/dL
same,gamma-GTP,24 h,1 IU/L
